In PMC10982999, “Structure-Guided Design and Optimization of Covalent VHL-Targeted Sulfonyl Fluoride PROTACs” (Journal of Medicinal Chemistry, 2024):

Legend:
[1] = target: T1, VCB and FAM-conjugated HIF1α-derived peptide interaction (Homo sapiens, UniProt P40337); assay: Competitive fluorescence polarization (FP) assay, VCB / FAM-conjugated HIF1α-derived peptide; assay type: binding; details: concentrations up to 100 μM, 2 h pre-incubation with VCB
T1 construct: human VHL (UniPort entry P40337, residues 1 -213); 6xHis followed by TEV site (N, cleaved yes); made in house; host or cells: E. coli One Shot BL21(DE3)
Method: We next focused on developing a second generation covalent VHL binder with enhanced potency and occupancy.
Figure 2 (A) Structure of VHL-SF2. […] (E) Competition pull-down assay from live cells between VHL-SF2-Biotin and VHL-SF2. HEK293T cells were pretreated with DMSO or varying concentrations of VHL-SF2 for 2 h at 37 °C. The cells were lysed and treated with DMSO or VHL-SF2-Biotin (50 μM) for 2 h at room temperature. A pull-down with streptavidin beads was conducted, after which the protein was resolved on SDS/PAGE. VHL and loading control GAPDH levels were visualized by Western blotting.
Figure S3. (A) Gel-based VHL labelling of VHL-SF1-Biotin, and (B) VHL-SF2-Biotin. VCB protein was pre-treated with DMSO, VHL-SF1-Biotin or VHL-SF2-Biotin for 2 h at room temperature, after which protein was resolved on SDS -PAGE and visualised by Neutravidin […]
Figure S4. Dose-response of VHL-SF1 following a 2 h pre-incubation in the presence of VCB and FAM-conjugated HIF1α-derived peptide, assessed by fluorescence polarization. Data […]
Figure S5. (A) VCB was incubated with DMSO for 24 h and subjected to intact-protein LC-MS (VHL: 24784 Da). […]
Fluorescence polarization assay protocol […]
well plate and the plate was shaken for 1 min, before reading fluorescence polarization on a Perkin Elmer Envision 2101 plate reader (excitation 486 nm, emission 535 nm). […]

physchem = details: buffer
Method: Table S1. Sulfonyl fluoride warhead stability for VHL-SF1 and VHL-SF2 was determined in
(1 picture or pasted object on this page, not shown here)

[2] = target: T2, recombinant human VCB (VHL protein with elongin C and elongin B) (Homo sapiens, UniProt P40337); assay: Gel-based streptavidin shift assay (anti-VHL Western blot); assay type: binding; details: 10 μM probe, 2 h incubation at room temperature
T2 construct: human VHL (UniPort entry P40337, residues 1 -213); 6xHis followed by TEV site (N, cleaved yes); made in house; host or cells: E. coli One Shot BL21(DE3)
Method: To assess the ability of VHL-SF1 to covalently modify VHL, we initially developed a streptavidin shift assay in which we exposed recombinant human VCB, a stable complex of VHL protein with elongin C and elongin B, to VHL-SF1-Biotin. VHL biotinylation could then be directly quantified by the apparent shift in molecular weight observed when the sample was mixed with streptavidin and analyzed by an anti-VHL Western blot (Figure S2).[20] Through this assay, we concluded that 10 μM VHL-SF1-Biotin modified 32% VHL following 2 h of incubation at room temperature, which was further confirmed to be concentration-dependent with respect to the probe (Figure S3).
Figure S2. (A) Structure of VHL-SF-1-Biotin. (B) Structure of VHL-SF-2-Biotin. (C - E) Gel-based streptavidin shift assay of VHL-SF1-Biotin, and VHL-SF2-Biotin. VCB protein was pre-treated with DMSO, VHL-SF1-Biotin (10 μM) or VHL-SF2-Biotin (10 μM) for 2 h at room temperature prior to addition of streptavidin (10 μM, 10 min) at room temperature, after which protein was resolved on SDS-PAGE and visualised by VHL western blotting. (F) Quantification of VHL levels from western blot.
Docking analysis with Molecular Operating Environment (MOE)
Molecular modelling studies were conducted using the software Molecular Operating Environment 2019.01. […]

With `CC(=O)N[C@H](C(=O)N1C[C@H](S(=O)(=O)F)C[C@H]1C(=O)NCc1ccc(-c2scnc2C)cc1)C(C)(C)C` [VHL-SF1, (3R,5S)-1-((S)-2-Acetamido-3,3-dimethylbutanoyl)-5-((4-(4-methylthiazol-5-yl)benzyl)carbamoyl)-pyrrolidine-3-sulfonyl fluoride] the “displacement of fluorophore-labeled HIF1α peptide” value [1] was “unable to displace”, the half-life (physchem; pH 6) was 15 h and the half-life (physchem; pH 7.5) was 0.55 h.
In the case of `Cc1cc([C@H](C(=O)N2C[C@H](S(=O)(=O)F)C[C@H]2C(=O)N[C@@H](CC(=O)NCCOCCOCCOCCNC(=O)CCCC[C@H]2SC[C@@H]3NC(=O)N[C@@H]32)c2ccc(-c3scnc3C)cc2)C(C)C)on1` [VHL-SF2-Biotin, (3R,5S)-1-((R)-3-Methyl-2-(3-methylisoxazol-5-yl)butanoyl)-5-(((S)-1-(4-(4-methylthiazol-5-yl)phenyl)-3,17-dioxo-21-((3aS,4R,6aR)-2-oxohexahydro-1H-thieno[3,4-d]imidazole-4-yl)-7,10,13-trioxa-4,16-diazahenicosyl)carbamoyl)pyrrolidine-3-sulfonyl fluoride], the “VHL modified (VHL biotinylation, streptavidin shift)” value [2] is reported as 44%.
